# Laboratory results published in US9144570B2, “Method to enhance delivery of glutathione and ATP levels in cells” (Max International LLC, priority 2004, dated 2015).
# Entries after “also recorded” stand apart in the source; their conditions may differ.
# What was measured:
# Rat hepatocytes [1] = assay: Inhibitory effect of BSO on GSH elevation elicited by L-cysteine prodrugs in rat hepatocytes; type: cell-based
# Procedure: (§1) Rat hepatocytes were isolated following the methods of P. O. Seglen, Exper. Cell Res., 74, 450 (1972). After final plating, the hepatocytes were maintained in culture for 24 hr prior to use. Only primary cultures were used throughout the studies. […] Total GSH content (GSH+GSSG) was determined by a modification of the DTNB [5,5′-dithiobis(2-nitrobenzoic acid)] glutathione reductase recycling method of F. Tietze, Anal. Biochem., 27, 502 (1969). The GSH concentration in the sample was quantified by determining the cycling rate (ΔOD at 412 nm/min) of the sample.
# tumor-bearing CDF1 mice = conditions: 8 mmol/kg i.p., cited from earlier work
# mice [2] = conditions: RibCys; 1 g/kg in mice; cited from earlier work
# mice [3] = conditions: RibCys 8 mmol/kg; cited from earlier work
# Rat hepatocytes [4] = assay: Glutathione content of isolated rat hepatocytes after incubation with L-cysteine prodrugs; type: cell-based; conditions: for [GSH] Rel. to Controls. / [GSH] ± SE: 4-hr incubation, RibCys 1.0 mM, NAC 2.5 mM; for [GSH] ± SE: total GSH (GSH+GSSG)
# Procedure: as §1
# mice [5] = conditions: cited from earlier work
# canine heart = conditions: cited from earlier work
# human subjects = conditions: administered directly to human subjects, wide dosage ranges; cited from earlier work
# healthy human subjects = conditions: oral, 8-10 g per day, adult; cited from earlier work
# [6] = prodrug 1.0 mM, cells pre-exposed to BSO 0.2 mM
smiles,measurement,setting,value
"O=C(O)[C@@H]1CSC(C(O)C(O)C(O)CO)N1 (stereo partly drawn) [RibCys, 2(R,S)-D-ribo-1′,2′,3′,4′-Tetrahydroxybutylthiazolidine-4(R)-carboxylic Acid]",[GSH] Rel. to Controls.,Rat hepatocytes [1]; [6],0.5
same,[GSH] ± SE,Rat hepatocytes [1]; [6],16.2 ± 3.60 nmol/10^6 cells
same,GSH in the liver compared to untreated controls,tumor-bearing CDF1 mice; 16-h time point,1.5 fold
same,GSH in bladder relative to controls,tumor-bearing CDF1 mice; maximal GSH content,2.1 fold
same,GSH in muscle relative to control animals,tumor-bearing CDF1 mice; maximal GSH content,2.5 times
same,Kidney GSH relative to control values,tumor-bearing CDF1 mice; maximal at 16 h,1.6 times control values
same,GSH in implanted L1210 tumors relative to controls,tumor-bearing CDF1 mice,1.2 fold
same,protection against radiation-induced bowel injury,mice [2],protect the large and small bowel against radiation injury; also recorded: protect mice against irradiation-induced bowel injury
same,protection of mice exposed to cyclophosphamide,mice [3],deliver effective protective amounts of cysteine to mice exposed to cyclophosphamide
same,[GSH] Rel. to Controls.,Rat hepatocytes [4],about 1.7
same,[GSH] Rel. to Controls.,Rat hepatocytes [4]; listed as RibCys (Ia),1.7
same,[GSH] ± SE,Rat hepatocytes [4],61.2 ± 1.52 nmol/10^6 cells
same,protection against acetaminophen hepatic and renal toxicity,"mice [5]; RibCys, 2 g/kg in mice",effective to protect against acetaminophen-induced hepatic and renal toxicity; also recorded: protect mice against acetaminophen hepatic and renal toxicity
"CCCCS(=N)(=O)CCC(N)C(=O)O (stereo not drawn) [BSO, Buthionine Sulfoximine]",[GSH] Rel. to Controls.,"Rat hepatocytes [1]; BSO 0.2 mM alone, no prodrug",0.5
same,[GSH] ± SE,"Rat hepatocytes [1]; BSO 0.2 mM alone, no prodrug",18.4 ± 2.08 nmol/10^6 cells
"CC1N[C@H](C(=O)O)CS1 (stereo partly drawn) [2(R,S)-methyl-thiazolidine-4R-carboxylate]",protection of mice from hepatotoxic dosages of acetaminophen,mice [5],protect mice from heptatotoxic dosages of acetaminophen
"CCCC1N[C@H](C(=O)O)CS1 (stereo partly drawn) [2(R,S)-n-propyl-thiazolidine-4R-carboxylate]",protection of mice from hepatotoxic dosages of acetaminophen,mice [5],protect mice from heptatotoxic dosages of acetaminophen
"CC(=O)N[C@@H](CS)C(=O)O [N-Acetyl-L-cysteine (NAC), N-Acetyl-L-cysteine]",[GSH] Rel. to Controls.,Rat hepatocytes [1]; [6],0.7
same,[GSH] ± SE,Rat hepatocytes [1]; [6],25.5 ± 1.59 nmol/10^6 cells
same,[GSH] Rel. to Controls.,Rat hepatocytes [4],1.3
same,GSH levels raised by,"Rat hepatocytes [4]; NAC, 2.5 times the concentration of the thiazolidine prodrugs",30%
same,[GSH] ± SE,Rat hepatocytes [4],45.8 ± 1.27 nmol/10^6 cells
same,protection of mice from hepatotoxic dosages of acetaminophen,mice [5],protect mice from heptatotoxic dosages of acetaminophen
"CCCCCC1N[C@H](C(=O)O)CS1 (stereo partly drawn) [2(R,S)-n-pentyl-thiazolidine-4R-carboxylate]",protection of mice from hepatotoxic dosages of acetaminophen,mice [5],protect mice from heptatotoxic dosages of acetaminophen
O=C[C@H](O)[C@H](O)[C@H](O)CO [ribose],decrease in the ATP recovery time,"canine heart; 80 mM ribose in normal saline, about 1 ml/min for about 24.0 hours, about 550-700 mg/kg",eight-fold decrease
same,recovery of ATP levels in heart recovering from ischemia,canine heart; intravenous perfusion,recovery of ATP levels is enhanced
same,ATP levels in dogs subjected to ischemia (heart attack model),canine heart; ribose about 3 g/day for at least 5 days,effectively restored and maintained ATP levels
same,toxicity,human subjects,essentially non-toxic
same,exercise capacity,healthy human subjects,increase exercise capacity
O=C1N[C@H](C(=O)O)CS1 [L-2-oxothiazolidine-4-carboxylate],protection of mice from hepatotoxic dosages of acetaminophen,mice [5],protect mice from heptatotoxic dosages of acetaminophen
